Tests used:
[1] = test system: CHO cells expressing FVII; experiment: Determination of cell growth and viability (viable cell density, flow cytometry with propidium iodide); assay type: cell-based, Chinese Hamster; conditions: for impact on viable cell density (VCD): summary in description, supplement present in cell culture medium, FIGS. 1A-8A
Experimental: (§1) Chinese Hamster Ovary cell line that expresses recombinant human Factor VII fusion protein was created using the GS expression system (Lonza). These cells were maintained in commercially available CD-CHO AGT medium (Invitrogen) supplemented with 50 μg/L reduced menadione sodium bisulfite (rMSB) (Richman), 25 μM methionine sulfoximine (MSX) (Sigma) and 1 mg/L insulin (Novo Nordisk). Cells were grown in shake flasks maintained at 37° C. with 8% CO2 atmosphere and subcultured every 3 days to 3×10^5 cells/mL.
Cells from the exponential growth phase of the cultures (at the end of regular 3-day passages) were used for the experiments. The cells were centrifuged, appropriate amount of spent media removed and cell pellets were resuspended in remaining spent media to a cell concentration of 3×10^6 cells/mL. 50 μL of this cell suspension was used to inoculate each well of a polypropylene V-bottom square 96-deepwell plate (Corning) containing 450 μL of a cell culture media based on DMEM/F12 supplemented with different levels of reduced L-glutathione (Sigma). The reduced L-glutathione concentration ranges tested were 0.01-15 mM with a corresponding reduced L-glutathione-free negative control. All cultures contained 213 μg/L rMSB to support appropriate cellular processing of Factor VII. All liquid handling steps were performed using a Tecan Freedom EVO® 200 robotic platform.
(§2) Culture plates were sealed with a breathable membrane (Corning) to maintain sterility and cultures were maintained at 37° C. with 8% CO2 atmosphere in a shaker incubator (Kuhner) operating at 350 rpm with an oribital diameter of 25 mm.
The cell density and viability in the culture were determined offline from a sample of culture obtained at day 5 and day 7 (counted from inoculation of the culture) using a MACSQuant® Analyzer 10 flow cytometer (Miltenyi Biotec), utilizing propidium iodide (Miltenyi Biotec) for viability staining. […]
The cell density and viability were determined as described for Example 1.

[2] = test system: recombinant human Factor VII fusion protein; experiment: Recombinant Factor VII chromogenic activity in culture supernatants (COASET Factor VII kit); assay type: cell-based; conditions: for effect on chromogenic activity of FVII: supernatant at days 7, 9 and 10; for impact on yield and/or activity of FVII: summary in description, supplement present in cell culture medium during FVII expression, FIGS. 1B-8C
Experimental: as §1
Cells from the exponential growth phase of the cultures (at the end of regular 3-day passages) were used for the experiments. The cells were centrifuged, appropriate amount of spent media removed and cell pellets were resuspended in remaining spent media to a cell concentration of 3×10^6 cells/mL. 50 μL of this cell suspension was used to inoculate each well of a polypropylene V-bottom square 96-deepwell plate (Corning) containing 450 μL of a cell culture media based on DMEM/F12 supplemented with different levels of reduced L-glutathione (Sigma). […] All cultures contained 213 μg/L rMSB to support appropriate cellular processing of Factor VII. All liquid handling steps were performed using a Tecan Freedom EVO® 200 robotic platform.
as §2
Recombinant Factor VII chromogenic activity in the cultures were determined from serially diluted supernatant samples obtained at days 7, 9 and 10 (counted from inoculation of the culture) using a commercially available chromogenic kit COASET Factor VII kit (Chromogenix). The assay was adapted for use with the SYSMEX® CS-5100 automated hemostasis analyzer (Siemens Healthcare) and performed according to manufacturers' instructions.
Cells from the exponential growth phase of the cultures (at the end of regular 3-day passages) were used for the experiments. The cells were centrifuged, appropriate amount of spent media removed and cell pellets were resuspended in remaining spent media to a cell concentration of 3×10^6 cells/mL. 50 μL of this cell suspension was used to inoculate each well of a polypropylene V-bottom square 96-deepwell plate (Corning) containing 450 μL of a cell culture media based on DMEM/F12 supplemented with different levels of alpha-ketoglutaric acid (Sigma), malic acid (Sigma), succinic acid (Sigma), oxaloacetic acid (Sigma), fumaric acid (Sigma), citric acid (Sigma) or sodium pyruvate (Sigma). […]
Recombinant Factor VII chromogenic activity in the cultures was determined as described for Example 1.

Row | SMILES | effect on viable cell density ([1]; Example 1, reduced L-glutathione 0.01-15 mM in DMEM/F12-based medium, day 5 and day 7, at most concentrations tested, FIG. 1A) | impact on viable cell density (VCD) [1] | effect on chromogenic activity of FVII ([2]; Example 1, reduced L-glutathione 0.01-15 mM, FIGS. 1B and 1C) | impact on yield and/or activity of FVII [2] | effect on chromogenic activity of FVII ([2]; Example 2, TCA intermediates 0.06-60 mM, sodium pyruvate 0.01-10 mM, FIGS. 2B-8C)
1 | N[C@@H](CCC(=O)N[C@@H](CS)C(=O)NCC(=O)O)C(=O)O [L-glutathione, (2S)-2-amino-5-[[(2R)-1-(carboxymethylamino)-1-oxo-3-sulfanylpropan-2-yl]amino]-5-oxopentanoic acid] | no effect on the viable cell density | only minor impact on the viable cell density | increases chromogenic activity of FVII | enhances yield and/or activity of FVII | 
2 | CC(=O)C(=O)[O-].[Na+] [Sodium pyruvate, sodium pyruvate, reference compound] |  | only minor impact on the viable cell density |  | no impact on yield and/or activity of FVII | no effect on the chromogenic activity of FVII
